{
  "source": "patent US20090197811A1",
  "about": "“ORALLY ADMINISTERED PEPTIDES TO IMPROVE OR PREVENT HEPATIC FIBROSIS” (University of Southern California, priority 2007, published 2009)",
  "assay_type_in_all_cases": "in vivo, mouse",
  "key": {"C57Bl/6J mice [1]": {"system": "C57Bl/6J mice", "experiment": "Western diet model: biochemical findings and liver and body weights", "details": "for GSH / TBARS: liver; for ALT / AST / Adiponectin / Cholesterol / Glucose / Insulin / Leptin / Triglycerides: serum", "description": "SR141716 was a kind gift from Sanofi-Aventis, France. SR141716 was dissolved in water with 0.1% Tween and given daily by gavage for 10 weeks. D-4F is an 18-mer of D-amino acids (Ac-D-W-F-K-A-F-Y-D-K-V-A-E-K-F-K-E-A-F-NH2)^4 (SEQ ID NO: 1) that was commercially synthesized (A & A Laboratories, San Diego Calif.) with 80% purity. D-4F was dissolved in the drinking water at a concentration of 60 μg/ml water for a calculated dose corrected for drug purity of 125 μg D-4F/mouse/day.\nThe high fat diet used was the RD “Western diet” (Research Diets, D12079B), which contains 41% of calories from fat, 43% calories from carbohydrate, and 17% of calories from protein); this diet was designed to approximate the “typical” human diet of North America and Europe.\n(§1) Studies were performed in male C5713L/6J mice (Jackson Laboratories, Bar Harbor Me.). Six groups were studied (n=3-5, see FIG. 1) with 4 mice per group at the outset, except for group 2, which was started with n=5; 1 mouse died in group 1. Groups 1, 2, and 3 received the Western diet for 9.5 months; during the last 2.5 months of the 9.5 months, group 2 received SR141716 10 mg/kg/day i.g., and group 3 received D-4F, 125 μg/mouse/day, in the drinking water. Groups 4, 5, and 6 received the Western diet for 7 months followed by standard chow for 2.5 months; during the 2.5 months on standard chow, group 5 received SR141716 and group 6 received D-4F as described for groups 2 and 3, respectively. Additional control groups were studied: 6-month old C57Bl/6J mice as age-matched controls (n=5) and C57Bl/6J mice that received the Western diet for 6 months (n=6).\nSerum aspartate amino transferase (AST) and alanine aminotransferase (ALT) were measured with the Infinity AST and ALT liquid assay reagent (Thermo Electron Corporation, Louisville Colo., cat #TR70121 and TR71121). Serum triglycerides and cholesterol were measured with the Infinity cholesterol assay reagent (Thermo Electron Corporation, Louisville Colo., cat #TR22321 and TR13315). Serum glucose was measured with the Glucose (HK) assay kit (Sigma, St. Louis, Mo., cat #GAHK-20). Serum insulin was measured with the Mercodia Ultrasensitive mouse insulin ELISA kit (ALPCO Diagnostics, Salem N.H., cat #10 1150-01). The homeostasis model assessment insulin resistance index (HOMA-IR) was calculated as [fasting glucose (mmol/liter)*fasting insulin (microunits/ml)]/22.5^17, 18. Serum leptin was measured with the TiterZyme EIA mouse leptin kit (Assay Designs Inc, Ann Arbor Mich., cat #900-019). Serum adiponectin was measured with the mouse adiponectin kit (Biovendor LLC, Candler N.C., cat #RD 293023100). Thiobarbituric acid reactive substance (TBARS) was measured as previously described^19, 20; in brief, liver was homogenized and diluted 1:1 in 10% ice cold trichloroacetic acid. 0.5 ml supernatant or of a standard solution of 1,1,3,3-tetraethoxypropane was mixed with 0.5 ml of 0.6% (w/v) 4,6-dihydroxy-2-thiopyrimidine. The solution was boiled for 30 min, cooled and centrifuged. Absorbance was measured at 532 nm with a Shimadzu TV-2101 PC spectrophotometer. To measure hepatic glutathione (GSH), liver was homogenized and diluted 1:1 in 10% ice cold trichloroacetic acid. GSH in the supernatant was measured according to the recycling assay of Tietze^21."}, "C57Bl/6J mice [2]": {"system": "C57Bl/6J mice", "experiment": "Western diet model: liver histology, assessment of steatosis and inflammation", "details": "for Fatty Change Degree of fat / Fatty Change Type (predominant type) / Inflammatory Clusters: individual mice", "description": "as §1\nThe slides were coded, without the pathologist knowing the specific treatment group that the slides represented. The histology was graded according to a number of histologic features. The degree of fat was graded as to the approximate percentage of hepatocytes containing fat: 0, absent; +/−, less than 5%; 1+, 5-25%; 2+. 26-50%; 3+, 51-75%; 4+, >75%. The fat was also assessed as to whether it was totally macrovesicular, predominantly macrovesicular, totally microvesicular, predominantly microvesicular, or mixed macro- and microvesicular. In addition, the zone was assessed as to whether the fat was perivenular, periportal, diffuse, or focal. Inflammation was graded as absent, scanty (1 to 3 foci/slide), present (scattered, with 4 to 10 foci/slide), present + (scattered, >10 foci/slide but not numerous), and present ++ (numerous). The type of inflammation was graded as totally mononuclear, predominantly mononuclear, totally neutrophilic, predominantly neutrophilic, and mixed mononuclear-neutrophilic. The hydropic change of hepatocytes was graded as absent, mild, and moderate/severe, with the location noted as perivenular, focal or diffuse."}, "C57Bl/6J mice [3]": {"system": "C57Bl/6J mice", "experiment": "Western diet model: fibrosis by Sirius red whole-section-scanning morphometric image analysis", "details": "summary statement", "description": "as §1\nSirius red staining was performed by the Morphology core of the USC-UCLA Research Center for Alcoholic Liver and Pancreatic Diseases. α-Smooth muscle actin.\nTissue sections stained with Sirius red were scanned by a third-generation Automated Cellular Imaging System (ACIS III), a highly automated microscope-based digital imaging system (Carl Zeiss MicroImaging AIS Inc., Aliso Viejo Calif.). The color of the Sirius red staining in the digitized tissue sections was determined and applied to a pre-existing algorithm that provides the area of a target color in μm^2. The outline of each digitized tissue section was manually traced using the computer's mouse. Areas of large portal tracts and central veins were also outlined manually. The total area (μm^2) of each tissue section and of the total area of large portal tracts and central veins were determined by the image analysis system. The area of fibrosis was calculated as [total area stained by Sirius red minus perivascular staining] as a percentage of the size of the tissue section. This method has the advantage of scanning the entire section, rather than measuring fibrosis in randomly chosen fields."}, "[4]": {"details": "7 months Western diet followed by 2.5 months Western diet + drug"}, "[5]": {"details": "7 months Western diet followed by 2.5 months chow + drug"}},
  "note": "“And” between values parts separate entries of the source, which are not always exact repeats. Equal values may be shown once. “Also recorded” adds a separate entry of the source.",
  "data": [
    {"smiles": "Cc1c(C(=O)NN2CCCCC2)nn(-c2ccc(Cl)cc2Cl)c1-c1ccc(Cl)cc1", "note": "[SR141716, reference compound]", "values": [
      {"measurement": "Body weight", "setting": "C57Bl/6J mice [1]; [4]", "value": "29.1 ± 2.0", "unit": "g"},
      {"measurement": "HOMA-IR", "setting": "C57Bl/6J mice [1]; [4]", "value": "8.8 ± 3.6"},
      {"measurement": "Liver weight", "setting": "C57Bl/6J mice [1]; [4]", "value": "1.54 ± 0.1", "unit": "g"},
      {"measurement": "Body weight", "setting": "C57Bl/6J mice [1]; [5]", "value": "30.2 ± 1.1", "unit": "g"},
      {"measurement": "HOMA-IR", "setting": "C57Bl/6J mice [1]; [5]", "value": "6.1 ± 2.0"},
      {"measurement": "Liver weight", "setting": "C57Bl/6J mice [1]; [5]", "value": "1.39 ± 0.1", "unit": "g"},
      {"measurement": "GSH", "setting": "C57Bl/6J mice [1]; [4]", "value": "68.7 ± 2.0", "unit": "nmole/mg protein"},
      {"measurement": "TBARS", "setting": "C57Bl/6J mice [1]; [4]", "value": "17.1 ± 0.7", "unit": "nmol/g tissue"},
      {"measurement": "GSH", "setting": "C57Bl/6J mice [1]; [5]", "value": "73.8 ± 2.2", "unit": "nmole/mg protein"},
      {"measurement": "TBARS", "setting": "C57Bl/6J mice [1]; [5]", "value": "18.7 ± 1.09", "unit": "nmol/g tissue"},
      {"measurement": "ALT", "setting": "C57Bl/6J mice [1]; [4]", "value": "54.8 ± 12.4", "unit": "U/L"},
      {"measurement": "AST", "setting": "C57Bl/6J mice [1]; [4]", "value": "109.6 ± 10.4", "unit": "U/L"},
      {"measurement": "Adiponectin", "setting": "C57Bl/6J mice [1]; [4]", "value": "18.4 ± 1.8", "unit": "µg/mL"},
      {"measurement": "Cholesterol", "setting": "C57Bl/6J mice [1]; [4]", "value": "112.2 ± 13.7", "unit": "mg/dL"},
      {"measurement": "Glucose", "setting": "C57Bl/6J mice [1]; [4]", "value": "136.3 ± 29.2", "unit": "mg/dL"},
      {"measurement": "Insulin", "setting": "C57Bl/6J mice [1]; [4]", "value": "0.81 ± 0.15", "unit": "ng/mL"},
      {"measurement": "Leptin", "setting": "C57Bl/6J mice [1]; [4]", "value": "2.36 ± 1.05", "unit": "ng/mL"},
      {"measurement": "Triglycerides", "setting": "C57Bl/6J mice [1]; [4]", "value": "33.1 ± 2.2", "unit": "mg/dL"},
      {"measurement": "ALT", "setting": "C57Bl/6J mice [1]; [5]", "value": "59.1 ± 11.4", "unit": "U/L"},
      {"measurement": "AST", "setting": "C57Bl/6J mice [1]; [5]", "value": "69.1 ± 5.5", "unit": "U/L"},
      {"measurement": "Adiponectin", "setting": "C57Bl/6J mice [1]; [5]", "value": "16.5 ± 2.0", "unit": "µg/mL"},
      {"measurement": "Cholesterol", "setting": "C57Bl/6J mice [1]; [5]", "value": "105.3 ± 4.7", "unit": "mg/dL"},
      {"measurement": "Glucose", "setting": "C57Bl/6J mice [1]; [5]", "value": "96.2 ± 3.0", "unit": "mg/dL"},
      {"measurement": "Insulin", "setting": "C57Bl/6J mice [1]; [5]", "value": "0.89 ± 0.27", "unit": "ng/mL"},
      {"measurement": "Leptin", "setting": "C57Bl/6J mice [1]; [5]", "value": "1.95 ± 0.72", "unit": "ng/mL"},
      {"measurement": "Triglycerides", "setting": "C57Bl/6J mice [1]; [5]", "value": "47.0 ± 2.2", "unit": "mg/dL"},
      {"measurement": "body weight (summary)", "setting": "C57Bl/6J mice [1]; summary statement", "value": "promoted weight loss"},
      {"measurement": "insulin resistance (summary)", "setting": "C57Bl/6J mice [1]; summary statement", "value": "decreased insulin resistance"},
      {"measurement": "leptin levels (summary)", "setting": "C57Bl/6J mice [1]; summary statement", "value": "decreased leptin levels"},
      {"measurement": "Fatty Change Degree of fat", "setting": "C57Bl/6J mice [2]; [4]", "value": "4 (2×) and 3 and 1"},
      {"measurement": "Fatty Change Type (predominant type)", "setting": "C57Bl/6J mice [2]; [4]", "value": "Microvesicular; also recorded: Mixed; also recorded: Macrovesicular"},
      {"measurement": "Inflammatory Clusters", "setting": "C57Bl/6J mice [2]; [4]", "value": "1 and 2 (4×)"},
      {"measurement": "Fatty Change Degree of fat", "setting": "C57Bl/6J mice [2]; [5]", "value": "3 (2×) and 2 and 1"},
      {"measurement": "Fatty Change Type (predominant type)", "setting": "C57Bl/6J mice [2]; [5]", "value": "Microvesicular"},
      {"measurement": "Inflammatory Clusters", "setting": "C57Bl/6J mice [2]; [5]", "value": "2 (3×) and 1"},
      {"measurement": "steatohepatitis (summary)", "setting": "C57Bl/6J mice [2]; summary statement", "value": "improved steatohepatitis"},
      {"measurement": "progression of fibrosis after onset of steatohepatitis", "setting": "C57Bl/6J mice [3]", "value": "prevented progression of fibrosis"}
    ]}
  ]
}
